Assay results reported in patent publication US20230233425A1, “USE OF VOLATILE COMPOSITIONS TO LIMIT OR ELIMINATE THE PERCEPTION OF MALODOR” (Firmenich SA, priority 2017, published 2023).
Where two headings read alike, the source gives them in different places. Each block holds one compound with its values, some of them ahead of it.

Assays:
[1] = biological target: T1, OR51E1 olfactory receptor (Homo sapiens, UniProt Q8TCB6); experiment: Butyric acid olfactory receptor antagonist cell-based dose-response vs butyric acid EC80; settings: Table 20, spiro analogues; for Emax: read-out: Inhibition (%)
T1 construct: expressed in transfected cells
T1 sequence (Q8TCB6 1-318): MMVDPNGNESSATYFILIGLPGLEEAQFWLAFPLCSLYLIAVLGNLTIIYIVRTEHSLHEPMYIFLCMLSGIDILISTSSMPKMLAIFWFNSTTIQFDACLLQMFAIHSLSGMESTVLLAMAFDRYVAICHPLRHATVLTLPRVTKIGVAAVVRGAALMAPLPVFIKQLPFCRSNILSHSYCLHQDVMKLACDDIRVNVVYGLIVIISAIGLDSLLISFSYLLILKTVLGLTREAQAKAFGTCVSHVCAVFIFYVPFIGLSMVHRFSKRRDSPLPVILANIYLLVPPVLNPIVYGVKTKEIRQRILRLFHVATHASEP

[2] = test system: butyric acid malodor perception; experiment: Human sensory panel, perceived intensity of butyric acid; format: in vivo; settings: Table 20
Method: The pleasantness of the compounds delivered alone (triangles, dashed-line) and in a mixture with butyric acid at isointense concentrations (squares, solid line). Many of these compounds are shown to inhibit the activity of a butyric acid olfactory receptor.
Malodor receptor antagonist systems and compositions were evaluated at a gas phase concentration of 3.4 microg/1 air. The sensory method to evaluate compositions required the use of specially designed air dilution olfactometers to achieve well controlled and stable gas phase concentrations of the compositions and of the malodor to the group of test subjects.
The 30 subjects first evaluated the malodor reconstitution alone and then rated the 3 attributes “Freshness”, “Pleasantness” and “malodor” (the malodor character) on a 0 to 10 scale. The next evaluation was performed 30 seconds later to avoid odor adaptation, the malodor reconstitution was injected together with the test composition in the olfactometer. Ratings for the same descriptors recorded.

Olfr749 = biological target: T2, Olfr749 (Mus musculus, UniProt E9Q438); experiment: Indole antagonist dose-response, cAMP HTRF in HEK293T, vs indole EC80; format: cell-based; settings: Table 23
T2 construct: Flag; Rho tag; expressed in transfected cells
T2 sequence (E9Q438 1-313): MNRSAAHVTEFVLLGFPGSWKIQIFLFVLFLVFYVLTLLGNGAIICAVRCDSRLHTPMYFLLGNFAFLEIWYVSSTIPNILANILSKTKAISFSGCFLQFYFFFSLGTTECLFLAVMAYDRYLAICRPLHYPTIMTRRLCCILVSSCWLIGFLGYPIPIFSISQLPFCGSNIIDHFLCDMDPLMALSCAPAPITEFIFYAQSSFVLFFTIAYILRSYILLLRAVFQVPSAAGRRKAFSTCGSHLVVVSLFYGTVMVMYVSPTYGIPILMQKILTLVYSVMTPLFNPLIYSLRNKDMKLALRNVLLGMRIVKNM
Method: (§1) Functional dose-response experiments were performed to identify compounds capable of antagonizing indole-sensitive receptors previously identified (U.S. Pat. No. 9,914,760 B2). Using a cell-based assay, mouse receptor Olfr738, Olfr739, Olfr740, Olfr741, 0fr742, Olfr743, Olfr744, Olfr746, Olfr748 and Olfr749 were tested in an HEK293T cell line wherein the endogenous RTP1 gene has been activated and the odorant receptor chaperone was expressed (described in WO2016201153A1). The receptor genes were tagged with a Flag-Rho tag combination. Receptor genes were co-transfected with the canonical olfactory human G-protein alpha subunit Golf gene. Co-expression of the human Golf activates the Gs transduction pathway that leads to an internal cAMP increase upon binding to the appropriate ligand (indole here). Odorant-induced activity was detected by measuring the cAMP increase in the cytosol using an HTRF based kit (CisBio, cAMP dynamic 2 kit, cat. 62AM4PEJ). The receptors were exposed to binary mixtures of increasing concentrations of the test compounds in the presence of a potent activation concentration of indole (EC80) for each receptor. […] All the compounds listed decreased the indole induced activity of at least one receptor.

Olfr744 = biological target: T3, Olfr744 (Mus musculus, UniProt Q7TRM0); experiment: as above; format: cell-based; settings: Table 23
T3 construct: Flag; Rho tag; expressed in transfected cells
T3 sequence (Q7TRM0 1-323): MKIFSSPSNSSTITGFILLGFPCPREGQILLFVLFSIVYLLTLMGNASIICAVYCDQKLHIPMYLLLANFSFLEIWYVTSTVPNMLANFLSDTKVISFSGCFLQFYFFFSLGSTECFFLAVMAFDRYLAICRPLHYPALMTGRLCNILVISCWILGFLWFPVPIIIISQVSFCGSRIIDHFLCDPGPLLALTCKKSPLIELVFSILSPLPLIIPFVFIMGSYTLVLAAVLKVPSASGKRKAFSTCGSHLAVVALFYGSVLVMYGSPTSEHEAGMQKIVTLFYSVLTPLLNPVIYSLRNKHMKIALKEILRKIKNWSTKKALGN
Method: as §1

Olfr746 = biological target: T4, Olfr746 (Mus musculus, UniProt E9Q840); experiment: as above; format: cell-based; settings: Table 23
T4 construct: Flag; Rho tag; expressed in transfected cells
T4 sequence (E9Q840 1-314): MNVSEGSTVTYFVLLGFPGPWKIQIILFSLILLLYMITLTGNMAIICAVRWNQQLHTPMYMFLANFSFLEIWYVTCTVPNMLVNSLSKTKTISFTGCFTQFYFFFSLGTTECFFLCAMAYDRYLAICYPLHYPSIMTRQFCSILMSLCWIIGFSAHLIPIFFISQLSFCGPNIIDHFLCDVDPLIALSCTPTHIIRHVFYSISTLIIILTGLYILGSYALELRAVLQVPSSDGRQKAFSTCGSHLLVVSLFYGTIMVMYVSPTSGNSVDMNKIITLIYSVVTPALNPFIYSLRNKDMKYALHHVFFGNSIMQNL
Method: as §1

Olfr739 = Olfr739 (Mus musculus, UniProt E9Q1P0); experiment: as above; format: cell-based; settings: for IC50: Table 22, first listing (r7-r45)
Method: as §1

Olfr743 = Olfr743 (Mus musculus, UniProt L7N1Y2); experiment: as above; format: cell-based; settings: Table 23
Method: as §1

Olfr741 = Olfr741 (Mus musculus, UniProt L7N1Y5); experiment: as above; format: cell-based
Olfr738 = Olfr738 (Mus musculus, UniProt L7N1X7); experiment: as above; format: cell-based; settings: vs indole EC80; for IC50: Table 22, first listing (r7-r45), read-out: Olfr738 IC50
Olfr748 = Olfr748 (Mus musculus, UniProt E9Q9Z0); experiment: as above; format: cell-based; settings: Table 23
Olfr740 = Olfr740 (Mus musculus, UniProt E9PV79); experiment: as above; format: cell-based; settings: vs indole EC80; for Emax: HEK-293T, read-out: Olfr740 % Inhibition; for IC50: Table 22, first listing (r7-r45), read-out: Olfr740 IC50
Olfr742 = Olfr742 (Mus musculus, UniProt A2RTP5); experiment: as above; format: cell-based; settings: vs indole EC80; for Emax: HEK-293T, read-out: Olfr742 % Inhibition
[3] = test system: geonol receptors Olfr339, Olfr1487, Olfr1A1, OR11A1, Olfr96; experiment: Antagonists of geonol receptors (Example 11); format: cell-based, mouse and human; set-up: Inhibition(%): concentration or dose not given beside the values; settings: Table 18
[4] = test system: 1-octen-3-ol mushroom/earthy/fungal odor perception; experiment: Human sensory performance of test compounds with and without 1-octen-3-ol; format: in vivo; settings: Test Compound Only
[5] = test system: OR2W1 or the OR1A1 olfactory receptor; experiment: 1-octen-3-ol olfactory receptor antagonist cell-based dose-response vs 1-octen-3-ol EC80
Source text: Each cell line was screened with a volatile compound library for their inhibitory properties and potential 1-octen-3-ol smell inhibition.
Single concentration monitoring of the 1-octen-3-ol induced cell activity in the presence or absence of a test compound allowed for the identification of compounds with a putative suppression or inhibitory effect.

[6] = test system: geonol earthy/moss odor perception; experiment: Human sensory performance of test compounds with and without geonol; format: in vivo; settings: Test Compound Only
How it was run: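 Panelists first learned the earthy/moss quality from a geonol-only reference, then rated pleasantness, earthy/moss intensity and overall intensity of geonol alone, antagonist alone, and geonol mixed with isointense or low-intensity antagonist on a 0-10 linear scale. Samples were presented in glass jars in randomized order with two-minute intervals.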

[7] = Table 22, second listing of the same compounds

Olfr743, sequence (L7N1Y2 entry or part of it): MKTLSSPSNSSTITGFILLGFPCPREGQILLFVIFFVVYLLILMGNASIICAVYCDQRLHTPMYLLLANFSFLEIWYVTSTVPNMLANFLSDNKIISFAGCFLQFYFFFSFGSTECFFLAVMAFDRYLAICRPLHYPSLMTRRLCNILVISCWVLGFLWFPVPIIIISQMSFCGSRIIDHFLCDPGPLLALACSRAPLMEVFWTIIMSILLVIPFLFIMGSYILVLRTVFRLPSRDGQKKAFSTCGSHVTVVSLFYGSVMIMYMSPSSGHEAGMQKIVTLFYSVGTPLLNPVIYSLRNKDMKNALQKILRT
Olfr738, sequence (L7N1X7 entry or part of it): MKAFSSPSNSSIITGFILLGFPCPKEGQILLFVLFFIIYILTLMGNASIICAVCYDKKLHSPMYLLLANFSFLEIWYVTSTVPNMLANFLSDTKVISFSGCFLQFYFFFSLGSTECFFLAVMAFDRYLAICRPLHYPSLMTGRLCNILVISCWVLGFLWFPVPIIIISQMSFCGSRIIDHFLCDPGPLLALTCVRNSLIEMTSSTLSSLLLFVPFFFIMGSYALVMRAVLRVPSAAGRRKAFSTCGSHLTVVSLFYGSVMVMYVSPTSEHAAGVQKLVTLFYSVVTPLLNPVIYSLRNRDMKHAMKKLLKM
Olfr742, sequence (A2RTP5 entry or part of it): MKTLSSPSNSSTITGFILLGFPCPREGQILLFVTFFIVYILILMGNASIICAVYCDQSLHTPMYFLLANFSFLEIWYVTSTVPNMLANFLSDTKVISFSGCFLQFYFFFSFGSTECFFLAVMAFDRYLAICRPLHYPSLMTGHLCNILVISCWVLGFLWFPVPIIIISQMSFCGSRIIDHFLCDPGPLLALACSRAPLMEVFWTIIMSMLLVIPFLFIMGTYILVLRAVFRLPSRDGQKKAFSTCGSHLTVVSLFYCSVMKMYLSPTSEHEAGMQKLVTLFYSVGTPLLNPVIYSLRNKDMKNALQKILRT
Olfr741, sequence (L7N1Y5 entry or part of it): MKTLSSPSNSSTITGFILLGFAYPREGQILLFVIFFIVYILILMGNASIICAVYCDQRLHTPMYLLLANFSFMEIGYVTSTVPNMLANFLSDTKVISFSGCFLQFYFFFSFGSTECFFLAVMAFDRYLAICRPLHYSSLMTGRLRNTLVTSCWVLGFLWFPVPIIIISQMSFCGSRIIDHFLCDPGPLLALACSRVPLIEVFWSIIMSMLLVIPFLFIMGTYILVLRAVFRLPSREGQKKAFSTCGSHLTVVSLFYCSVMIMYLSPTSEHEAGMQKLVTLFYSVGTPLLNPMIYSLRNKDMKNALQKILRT
Olfr748, sequence (E9Q9Z0 entry or part of it): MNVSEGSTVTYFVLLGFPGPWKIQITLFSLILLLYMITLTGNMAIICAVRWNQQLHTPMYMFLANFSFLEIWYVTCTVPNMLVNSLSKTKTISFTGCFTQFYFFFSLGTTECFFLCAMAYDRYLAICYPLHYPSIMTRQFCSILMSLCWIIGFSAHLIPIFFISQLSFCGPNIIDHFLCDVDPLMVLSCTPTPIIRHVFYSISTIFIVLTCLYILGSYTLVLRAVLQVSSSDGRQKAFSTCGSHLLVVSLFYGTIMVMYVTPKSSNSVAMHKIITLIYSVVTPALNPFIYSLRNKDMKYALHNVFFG
Olfr739, sequence (E9Q1P0 entry or part of it): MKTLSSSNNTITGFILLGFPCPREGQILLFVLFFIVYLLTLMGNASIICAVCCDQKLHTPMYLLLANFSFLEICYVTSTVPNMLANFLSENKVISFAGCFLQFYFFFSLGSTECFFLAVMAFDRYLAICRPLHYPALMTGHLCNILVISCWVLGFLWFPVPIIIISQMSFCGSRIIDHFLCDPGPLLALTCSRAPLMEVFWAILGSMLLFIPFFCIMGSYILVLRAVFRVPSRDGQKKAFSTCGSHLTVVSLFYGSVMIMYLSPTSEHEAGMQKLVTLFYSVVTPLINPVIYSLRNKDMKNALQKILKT
Olfr740, sequence (E9PV79 entry or part of it): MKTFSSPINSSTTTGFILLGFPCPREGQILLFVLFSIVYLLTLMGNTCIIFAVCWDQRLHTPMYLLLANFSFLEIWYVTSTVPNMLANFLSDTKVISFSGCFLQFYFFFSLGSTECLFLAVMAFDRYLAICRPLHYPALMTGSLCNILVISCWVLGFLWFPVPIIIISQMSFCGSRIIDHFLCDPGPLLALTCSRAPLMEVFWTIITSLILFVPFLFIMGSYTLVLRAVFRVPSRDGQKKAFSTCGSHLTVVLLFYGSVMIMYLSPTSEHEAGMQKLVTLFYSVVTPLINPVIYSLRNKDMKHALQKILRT

IC50 [1]: 78.7 µM
Emax [1]: 16%
Compound: CC1=C(C)CC2(CCCC(C)(C)C2O)C1 (stereo not drawn) [2,3,9,9-tetramethylspiro[4.5]dec-2-en-10-ol]
Sensory Performance (%) [2]: 60%

IC50 [1]: 72.3 µM
Emax [1]: 72%
Compound: CC(=O)OC1C(C)(C)CCCC12C(C)C=CCC2C (stereo not drawn)
Sensory Performance (%) [2]: 43%

Compound: CC1=C(C)CC2(CCCC(C)(C)C2=O)C1 [2,3,9,9-tetramethylspiro[4.5]dec-2-en-10-one]
Sensory Performance (%) [2]: 56%

IC50 [1]: > 600 µM
Emax [1]: 116%
Compound: CC(=O)OC1C(C)(C)CCCC12CC(C)=C(C)C2 (stereo not drawn) [(2,3,9,9-tetramethylspiro[4.5]dec-2-en-10-yl) acetate]
Sensory Performance (%) [2]: 40%

IC50 (Olfr749): 61.3 µM
Olfr749 % Inhibition (Olfr749): 91.71%
IC50 (Olfr744): 113 µM
Olfr744 % Inhibition (Olfr744): 55.20%
IC50 (Olfr746): 85.9 µM
Olfr746 % Inhibition (Olfr746): 13.17%
Olfr739 % Inhibition (Olfr739; Table 22, first listing): 102.21%
IC50 (Olfr739): 19.5 µM
Olfr739 % Inhibition (Olfr739; [7]): 55.20%
IC50 (Olfr743): 192 µM
Olfr743 % Inhibition (Olfr743): 38.36%
IC50 (Olfr741; Table 22, first listing): 108 µM
Olfr741 % Inhibition (Olfr741; Table 22, first listing): 59.56%
IC50 (Olfr741; [7]): 121 µM
Olfr741 % Inhibition (Olfr741; [7]): 9.24%
IC50 (Olfr738): 18.1 µM
Olfr738 % Inhibition (Olfr738; Table 22, first listing): 54.69%
Olfr738 % Inhibition (Olfr738; [7]): 38.36%
IC50 (Olfr748): 121 µM
Olfr748 % Inhibition (Olfr748): 9.24%
Emax (Olfr740; Table 22, first listing): 203%
Emax (Olfr740; [7]): 13.2%
IC50 (Olfr740): 13.4 µM
Emax (Olfr742; Table 22, first listing): 63%
Emax (Olfr742; [7]): 91.7%
IC50 (Olfr742; Table 22, first listing (r7-r45), read-out: Olfr742 IC50): 99.1 µM
Compound: C=C1CC[C@H]2O[C@]2(C)CC[C@@H]2[C@@H]1CC2(C)C

IC50 [1]: 46.6 µM
Emax [1]: 103%
Compound: C=C(C)CC1(CC(=C)C)CCCC(C)(C)C1=O [2,2-dimethyl-6,6-bis(2-methylprop-2-enyl)cyclohexan-1-one]
Sensory Performance (%) [2]: 50%

IC50 [3]: 96.7 µM
IC50 (Olfr749): 41.5 µM
Olfr749 % Inhibition (Olfr749): 96.98%
IC50 (Olfr744): 74.7 µM
Olfr744 % Inhibition (Olfr744): 107.89%
IC50 (Olfr746): 308 µM
Olfr746 % Inhibition (Olfr746): 81.36%
Olfr739 % Inhibition (Olfr739; Table 22, first listing): 68.44%
IC50 (Olfr739): 13.9 µM
IC50 (Olfr743): 264 µM
Olfr743 % Inhibition (Olfr743): 123.10%
IC50 (Olfr741; Table 22, first listing): 148 µM
Olfr741 % Inhibition (Olfr741; Table 22, first listing): 96.86%
IC50 (Olfr738): 2.74 µM
Olfr738 % Inhibition (Olfr738; Table 22, first listing): 101.72%
IC50 (Olfr748): 106 µM
Olfr748 % Inhibition (Olfr748): 65.60%
Emax (Olfr740; Table 22, first listing): 127%
IC50 (Olfr740): 1.96 µM
IC50 ([5]; 1-octen-3-ol at EC80): 63.2 µM
Compound: CC1(C)CCC[C@]2(C)CC(=O)CC[C@@H]12 (racemic) [(+−)-perhydro-5,5,8A-trimethyl-2-trans-naphthalenone]
Inhibition(%) [3]: 71%
% Mushroom/Earthy/Fungal Odor [4]: 30.80%
% Inhibition ([5]; maximum inhibition normalized to baseline agonist activity): 102.97%
% Earthy/Moss Odor [6]: 45.20%

IC50 [1]: 51.4 µM
Emax [1]: 62%
Compound: CC(=O)OC1C(C)(C)CCCC12CC(C)C(C)C2 (stereo not drawn)
Sensory Performance (%) [2]: 50%
